SMILES strings stand for the structures.

This assay deals with total salivary bacterial pool (mixed oral bacteria). Kind of assay: Malodour assay using lead acetate paper (H2S production by pooled salivary bacteria). To be noted: pooled human saliva bacteria OD 0.4, 96 well plate, incubated overnight, ΔE of lead acetate paper; actives at the weight % of the composition. Set-up: concentration or dose not given beside the values. Type of assay: cell-based. The procedure: Malodour Assay Using Lead Acetate Paper:
The following tests were done to find out the efficacy of different compositions inside and outside the scope of the present invention:
The early morning saliva from different volunteer (5 samples) were pooled and centrifuged (Eppendorf refrigerated centrifuge 5810R at 6300 rcf/11.5 G) for 10 minutes. After that, the Supernatant which is saliva and the pellet—mixed bacterial pool (oral bacteria e.g. Streptococcus. mitis, Streptococcus. mutans, Nisseria. flava, Rothia. dentocariosa etc.,) was separated. The saliva was then filter sterilized by passing through the 50 mL conical 0.2 μm PES sterile filter (VWR lab products limited). The OD of total salivary bacterial pool culture was adjusted to 0.4 by spectrophotometer (Shimadzu UV Spectrophotometer—UV-1800) for higher pool of bacteria which is required for the assay. The assay was set up in a 96 well plate with respective culture control and DMSO control. The total reaction volume was 200 μL/well which comprises of the following: 45 μl 0.1% L-cysteine-HCl (Sigma, C1276)+TSB (Bacto, 211825, 30 g/L)+50 μL sterile Saliva+75 μL Culture+30 μL active (as per the weight % disclosed in the following table 2)+sterile distilled water.
Then the actives at desired concentration were added and the remaining volume was adjusted with sterile distilled water. After that, the wells were mixed well, and lead acetate filter was placed above the wells to capture the H2S released by the bacteria. […] The intensity of the spots was measured using a LAB reader (Minolta spectrophotometer CM 2600D). The colour reading was expressed in LAB, L* defines lightness, A* denotes the red/green value and B* the yellow/blue value. Then ΔL, ΔA and ΔB is calculated using this formula ΔL=L control−L sample, ΔA=L control−L sample, AB=L control−L sample. The total colour difference which is expressed as ΔE is calculated using this formula ΔE=√{square root over (((ΔL)^2+(ΔA)^2+(ΔB)^2))}. […] The total fold change of H2S inhibition over the control was calculated for the individual actives.
Turning to `C=CCc1ccc(O)c(-c2ccc(O)c(CC=C)c2)c1` [B, honokiol], the “Fold Change (total fold change of H2S inhibition over the control)” value stood at 1.6 ± 1.8. Next, `C=CCc1ccc(O)c(-c2ccc(O)c(CC=C)c2)c1` [C, honokiol]: 1.5 ± 1.8. `CC(O)CN(CCN(CC(C)O)CC(C)O)CC(C)O` (stereo not drawn) [Example A, tetrahydroxypropyl ethylenediamine]: the “Fold Change (total fold change of H2S inhibition over the control)” value is listed as 0.9±0.3.

The record behind these values is patent US12311044B2, “Antimicrobial composition” (priority 2018, dated 2025).
